Active and inactive are the calls of the source. The calls are words filed in the database; no cut-off is given here.
Legend:
[1] = biological target: Metabotropic glutamate receptor 1 (Rattus norvegicus, UniProt P23385); experiment: Negative allosteric modulation of rat mGluR1 expressed in HEK293 cells assessed as inhibition of glutamate induced calcium mobilization by calcium mobilization assay; type: functional, cell-based
[2] = biological target: Metabotropic glutamate receptor 1 (Rattus norvegicus) (UniProt P23385); experiment: Negative allosteric modulation of rat mGluR1 expressed in HEK293 cells assessed as calcium mobilization at 30 uM by calcium mobilization assay relative to 100 uM glutamate; type: functional, cell-based
[3] = biological target: Metabotropic glutamate receptor 5 (Rattus norvegicus, UniProt P31424); experiment: Negative allosteric modulation of rat mGluR5 expressed in HEK293 cells assessed as inhibition of glutamate induced calcium mobilization by calcium mobilization assay; type: functional, cell-based; settings: read-out: IC50
[4] = biological target: Metabotropic glutamate receptor 5 (Rattus norvegicus) (UniProt P31424); experiment: Negative allosteric modulation of rat mGluR5 expressed in HEK293 cells assessed as calcium mobilization at 30 uM by calcium mobilization assay relative to 100 uM glutamate; type: functional, cell-based
[5] = biological target: Adenosine receptor A1 (Homo sapiens) (UniProt P30542); experiment: Inhibition of recombinant human Adenosine A1 receptor expressed in CHO cells at 10 uM by radioligand binding assay; type: cell-based
[6] = biological target: Adenosine receptor A2a (Homo sapiens) (UniProt P29274); experiment: Inhibition of recombinant human Adenosine A2A receptor expressed in HEK293 cells at 10 uM by radioligand binding assay; type: cell-based
[7] = biological target: 5-hydroxytryptamine receptor 2B (Homo sapiens) (UniProt P41595); experiment: Inhibition of recombinant human 5-HT2B receptor expressed in CHOK1 cells at 10 uM by radioligand binding assay; type: cell-based; settings: CHO-K1
[8] = biological target: Sodium-dependent noradrenaline transporter (Homo sapiens) (UniProt P23975); experiment: Inhibition of recombinant human norepinephrine transporter expressed in MDCK cells at 10 uM by radioligand binding assay; type: cell-based
[9] = species on record: Rattus norvegicus; experiment: Inhibition of rat brain sodium channel, site 2 at 10 uM by radioligand binding assay
[10] = biological target: Casein kinase I isoform alpha (Homo sapiens) (UniProt P48729); experiment: Inhibition of human CK1alpha1 at 10 uM
[11] = biological target: Casein kinase I isoform delta (Homo sapiens) (UniProt P48730); experiment: Inhibition of human CK1delta at 10 uM
[12] = biological target: Casein kinase I isoform epsilon (Homo sapiens) (UniProt P49674); experiment: Inhibition of human CK1epsilon at 10 uM
[13] = biological target: Casein kinase I isoform gamma-2 (Homo sapiens) (UniProt P78368); experiment: Inhibition of human CK1gamma2 at 10 uM
[14] = biological target: Serine/threonine-protein kinase 17A (Homo sapiens) (UniProt Q9UEE5); experiment: Inhibition of human DRAK1 at 10 uM
[15] = biological target: SRSF protein kinase 1 (Homo sapiens) (UniProt Q96SB4); experiment: Inhibition of human SRPK1 at 10 uM
[16] = biological target: SRSF protein kinase 2 (Homo sapiens) (UniProt P78362); experiment: Inhibition of human SRPK2 at 10 uM
[17] = biological target: TRAF2 and NCK-interacting protein kinase (Homo sapiens) (UniProt Q9UKE5); experiment: Inhibition of human TNIK at 10 uM
[18] = Fraction unbound in mouse plasma by equilibrium dialysis assay; type: ADME, cell-free
[19] = test system: Plasma; experiment: Fraction unbound in rat plasma by equilibrium dialysis assay; type: ADME, cell-free
[20] = Fraction unbound in rat brain by equilibrium dialysis assay; type: ADME, tissue-based
[21] = Fraction unbound in mouse brain by equilibrium dialysis assay; type: ADME, tissue-based
[22] = biological target: Cytochrome P450 3A4 (Homo sapiens, UniProt P08684); experiment: Inhibition of CYP3A4 in human liver microsomes in presence of NADPH; type: ADME
[23] = biological target: Cytochrome P450 2D6 (Homo sapiens, UniProt P10635); experiment: Inhibition of CYP2D6 in human liver microsomes in presence of NADPH; type: ADME
[24] = biological target: Cytochrome P450 2C9 (Homo sapiens, UniProt P11712); experiment: Inhibition of CYP2C9 in human liver microsomes in presence of NADPH; type: ADME
[25] = biological target: Cytochrome P450 1A2 (Homo sapiens, UniProt P05177); experiment: Inhibition of CYP1A2 in human liver microsomes in presence of NADPH; type: ADME
[26] = Half life in Sprague-Dawley rat at 0.2 mg/kg, iv; type: ADME, organism-based; settings: in vivo
[27] = Plasma clearance in Sprague-Dawley rat at 0.2 mg/kg, iv; type: ADME, organism-based
[28] = Ratio of drug level in brain to plasma of rat at 0.2 mg/kg measured at 15 mins post dose; type: ADME, organism-based; settings: 0.25 h
[29] = Ratio of drug level in brain to plasma of CD-1 mouse at 30 mg/kg measured at 30 mins post dose; type: ADME, organism-based; settings: 0.5 h
[30] = Unbound brain to plasma ratio in rat at 0.2 mg/kg measured at 15 mins post dose; type: ADME, organism-based; settings: 0.25 h
[31] = Unbound brain to plasma ratio in CD-1 mouse at 30 mg/kg, ip measured at 30 mins post dose; type: ADME, organism-based; settings: 0.5 h
[32] = Tmax in Sprague-Dawley rat at 10 mg/kg, ip; type: ADME, organism-based; settings: in vivo
[33] = Cmax in Sprague-Dawley rat at 10 mg/kg, ip; type: ADME, organism-based; design: dose 10 mg/kg, route intraperitoneal; settings: in vivo
[34] = AUC in Sprague-Dawley rat at 10 mg/kg, ip; type: ADME, organism-based; settings: in vivo
[35] = Tmax in CD-1 mouse at 30 mg/kg, ip; type: ADME, organism-based; settings: in vivo
[36] = Cmax in CD-1 mouse at 30 mg/kg, ip; type: ADME, organism-based; design: dose 30 mg/kg, route intraperitoneal; settings: in vivo
[37] = AUC in CD-1 mouse at 30 mg/kg, ip; type: ADME, organism-based; settings: in vivo
[38] = biological target: Metabotropic glutamate receptor 2 (Rattus norvegicus) (UniProt P31421); experiment: Activity at rat mGluR2 expressed in HEK293-GIRK cells assessed as effect on glutamate-induced response by thallium flux assay; type: cell-based
[39] = biological target: Metabotropic glutamate receptor 3 (Rattus norvegicus) (UniProt P31422); experiment: Activity at rat mGluR3 expressed in HEK293-GIRK cells assessed as effect on glutamate-induced response by thallium flux assay; type: cell-based
[40] = biological target: Metabotropic glutamate receptor 4 (Rattus norvegicus) (UniProt P31423); experiment: Activity at rat mGluR4 expressed in HEK293-GIRK cells assessed as effect on glutamate-induced response by thallium flux assay; type: cell-based
[41] = biological target: Metabotropic glutamate receptor 6 (Rattus norvegicus) (UniProt P35349); experiment: Activity at rat mGluR6 expressed in HEK293-GIRK cells assessed as effect on glutamate-induced response by thallium flux assay; type: cell-based
[42] = biological target: Metabotropic glutamate receptor 7 (Rattus norvegicus) (UniProt P35400); experiment: Activity at rat mGluR7 expressed in HEK293-GIRK cells assessed as effect on glutamate-induced response by thallium flux assay; type: cell-based
[43] = biological target: Metabotropic glutamate receptor 8 (Rattus norvegicus) (UniProt P70579); experiment: Activity at rat mGluR8 expressed in HEK293-GIRK cells assessed as effect on glutamate-induced response by thallium flux assay; type: cell-based
[44] = biological target: Adenosine receptor A3 (Homo sapiens) (UniProt P0DMS8); experiment: Inhibition of recombinant human Adenosine A3 receptor expressed in CHOK1 cells at 10 uM by radioligand binding assay; settings: CHO-K1
Adenosine receptor A3 (Homo sapiens), sequence (P0DMS8 whole entry, looked up): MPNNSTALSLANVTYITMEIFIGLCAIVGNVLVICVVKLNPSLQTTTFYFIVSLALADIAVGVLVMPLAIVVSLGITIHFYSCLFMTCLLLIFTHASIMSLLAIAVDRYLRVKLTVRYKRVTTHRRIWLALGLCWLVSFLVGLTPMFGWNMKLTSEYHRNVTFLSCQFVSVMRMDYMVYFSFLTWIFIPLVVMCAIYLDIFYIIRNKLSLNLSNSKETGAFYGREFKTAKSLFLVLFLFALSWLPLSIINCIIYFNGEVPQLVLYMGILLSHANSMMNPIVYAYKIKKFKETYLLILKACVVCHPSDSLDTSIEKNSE

Metabotropic glutamate receptor 2 (Rattus norvegicus), sequence (P31421 19-872 limits assumed): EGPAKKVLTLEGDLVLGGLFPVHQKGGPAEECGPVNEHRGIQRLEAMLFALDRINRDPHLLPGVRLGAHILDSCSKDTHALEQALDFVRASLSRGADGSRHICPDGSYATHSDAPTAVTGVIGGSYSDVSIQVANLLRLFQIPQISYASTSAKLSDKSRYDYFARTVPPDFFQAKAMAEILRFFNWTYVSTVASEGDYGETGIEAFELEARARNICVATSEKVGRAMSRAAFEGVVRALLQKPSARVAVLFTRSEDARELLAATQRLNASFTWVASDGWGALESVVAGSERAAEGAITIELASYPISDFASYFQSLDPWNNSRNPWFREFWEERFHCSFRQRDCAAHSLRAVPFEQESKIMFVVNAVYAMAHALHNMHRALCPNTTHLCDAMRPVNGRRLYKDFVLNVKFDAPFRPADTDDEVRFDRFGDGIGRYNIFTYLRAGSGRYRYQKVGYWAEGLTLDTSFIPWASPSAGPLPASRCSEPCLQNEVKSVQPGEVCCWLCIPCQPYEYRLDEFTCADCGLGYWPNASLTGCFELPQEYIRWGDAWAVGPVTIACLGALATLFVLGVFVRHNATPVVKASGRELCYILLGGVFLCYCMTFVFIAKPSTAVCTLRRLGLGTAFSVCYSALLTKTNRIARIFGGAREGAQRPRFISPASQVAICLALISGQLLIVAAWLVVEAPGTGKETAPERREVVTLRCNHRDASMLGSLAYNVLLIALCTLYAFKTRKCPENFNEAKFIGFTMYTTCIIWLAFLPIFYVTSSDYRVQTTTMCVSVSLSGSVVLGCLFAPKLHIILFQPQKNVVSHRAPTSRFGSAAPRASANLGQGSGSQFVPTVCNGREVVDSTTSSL
Metabotropic glutamate receptor 5, sequence (P31424 whole entry): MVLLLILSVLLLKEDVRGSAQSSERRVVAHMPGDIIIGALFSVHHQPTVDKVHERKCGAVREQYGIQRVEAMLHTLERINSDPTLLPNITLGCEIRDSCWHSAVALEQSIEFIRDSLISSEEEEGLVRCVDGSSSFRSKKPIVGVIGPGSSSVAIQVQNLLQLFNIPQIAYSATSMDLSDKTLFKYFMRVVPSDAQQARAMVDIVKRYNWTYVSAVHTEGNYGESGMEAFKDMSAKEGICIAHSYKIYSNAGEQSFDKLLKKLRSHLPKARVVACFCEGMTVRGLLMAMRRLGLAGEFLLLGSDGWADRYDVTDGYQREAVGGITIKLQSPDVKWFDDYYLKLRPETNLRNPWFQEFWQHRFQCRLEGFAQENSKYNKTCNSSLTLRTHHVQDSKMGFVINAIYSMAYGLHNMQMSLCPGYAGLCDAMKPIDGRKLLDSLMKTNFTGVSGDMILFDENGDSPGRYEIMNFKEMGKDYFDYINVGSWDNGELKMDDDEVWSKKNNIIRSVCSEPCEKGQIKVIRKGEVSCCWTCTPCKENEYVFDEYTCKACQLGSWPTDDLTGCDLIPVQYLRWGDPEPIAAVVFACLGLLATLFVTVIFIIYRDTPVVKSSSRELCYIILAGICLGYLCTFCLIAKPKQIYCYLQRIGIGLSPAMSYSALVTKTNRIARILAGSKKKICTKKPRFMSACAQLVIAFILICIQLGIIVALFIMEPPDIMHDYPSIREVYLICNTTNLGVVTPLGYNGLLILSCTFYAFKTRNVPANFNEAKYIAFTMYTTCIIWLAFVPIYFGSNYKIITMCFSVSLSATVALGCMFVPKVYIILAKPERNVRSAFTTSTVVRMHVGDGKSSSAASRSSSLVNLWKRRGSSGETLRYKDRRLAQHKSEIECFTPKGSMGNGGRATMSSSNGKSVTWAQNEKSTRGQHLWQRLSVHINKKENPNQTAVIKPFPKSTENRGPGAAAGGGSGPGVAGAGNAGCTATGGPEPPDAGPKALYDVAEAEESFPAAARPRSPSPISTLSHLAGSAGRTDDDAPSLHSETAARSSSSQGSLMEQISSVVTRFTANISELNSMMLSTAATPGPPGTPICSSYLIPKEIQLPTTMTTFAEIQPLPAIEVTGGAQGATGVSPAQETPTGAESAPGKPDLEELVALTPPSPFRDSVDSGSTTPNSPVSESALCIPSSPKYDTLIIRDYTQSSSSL
Metabotropic glutamate receptor 3 (Rattus norvegicus), sequence (P31422 23-879 limits assumed): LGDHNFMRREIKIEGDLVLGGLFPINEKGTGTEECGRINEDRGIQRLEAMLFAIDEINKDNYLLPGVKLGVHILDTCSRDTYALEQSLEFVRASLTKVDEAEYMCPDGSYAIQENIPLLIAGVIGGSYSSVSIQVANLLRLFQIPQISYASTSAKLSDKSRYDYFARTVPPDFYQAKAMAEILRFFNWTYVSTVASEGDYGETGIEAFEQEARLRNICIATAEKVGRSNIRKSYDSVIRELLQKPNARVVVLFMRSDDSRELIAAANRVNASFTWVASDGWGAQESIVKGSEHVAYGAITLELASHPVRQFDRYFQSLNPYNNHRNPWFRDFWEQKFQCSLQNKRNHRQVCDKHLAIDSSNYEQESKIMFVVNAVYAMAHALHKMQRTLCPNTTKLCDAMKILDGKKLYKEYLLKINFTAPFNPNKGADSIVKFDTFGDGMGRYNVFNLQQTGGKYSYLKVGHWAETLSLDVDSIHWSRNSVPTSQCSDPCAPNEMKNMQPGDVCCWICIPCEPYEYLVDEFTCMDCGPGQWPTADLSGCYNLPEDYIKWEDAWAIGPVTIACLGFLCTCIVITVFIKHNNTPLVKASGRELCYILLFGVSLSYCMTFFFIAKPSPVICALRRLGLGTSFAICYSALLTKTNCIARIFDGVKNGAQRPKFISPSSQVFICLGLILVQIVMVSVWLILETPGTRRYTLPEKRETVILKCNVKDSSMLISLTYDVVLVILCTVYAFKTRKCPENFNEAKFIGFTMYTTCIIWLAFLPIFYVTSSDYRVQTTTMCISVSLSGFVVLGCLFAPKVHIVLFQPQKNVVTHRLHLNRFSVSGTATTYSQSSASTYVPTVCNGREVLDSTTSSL
Casein kinase I isoform gamma-2 (Homo sapiens), sequence (P78368 whole entry, looked up, canonical isoform): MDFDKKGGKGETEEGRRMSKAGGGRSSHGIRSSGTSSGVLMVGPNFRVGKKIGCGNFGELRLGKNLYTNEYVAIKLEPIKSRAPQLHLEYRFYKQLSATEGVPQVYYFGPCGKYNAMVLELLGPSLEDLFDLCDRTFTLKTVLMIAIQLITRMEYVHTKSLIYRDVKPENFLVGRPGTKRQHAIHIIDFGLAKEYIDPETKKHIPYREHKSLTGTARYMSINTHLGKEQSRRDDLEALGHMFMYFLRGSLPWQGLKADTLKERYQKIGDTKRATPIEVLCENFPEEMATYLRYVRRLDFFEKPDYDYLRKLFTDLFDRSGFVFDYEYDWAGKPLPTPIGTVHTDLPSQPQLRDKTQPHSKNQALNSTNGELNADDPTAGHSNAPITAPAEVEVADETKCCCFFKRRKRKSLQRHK
Metabotropic glutamate receptor 8 (Rattus norvegicus), sequence (P70579 whole entry): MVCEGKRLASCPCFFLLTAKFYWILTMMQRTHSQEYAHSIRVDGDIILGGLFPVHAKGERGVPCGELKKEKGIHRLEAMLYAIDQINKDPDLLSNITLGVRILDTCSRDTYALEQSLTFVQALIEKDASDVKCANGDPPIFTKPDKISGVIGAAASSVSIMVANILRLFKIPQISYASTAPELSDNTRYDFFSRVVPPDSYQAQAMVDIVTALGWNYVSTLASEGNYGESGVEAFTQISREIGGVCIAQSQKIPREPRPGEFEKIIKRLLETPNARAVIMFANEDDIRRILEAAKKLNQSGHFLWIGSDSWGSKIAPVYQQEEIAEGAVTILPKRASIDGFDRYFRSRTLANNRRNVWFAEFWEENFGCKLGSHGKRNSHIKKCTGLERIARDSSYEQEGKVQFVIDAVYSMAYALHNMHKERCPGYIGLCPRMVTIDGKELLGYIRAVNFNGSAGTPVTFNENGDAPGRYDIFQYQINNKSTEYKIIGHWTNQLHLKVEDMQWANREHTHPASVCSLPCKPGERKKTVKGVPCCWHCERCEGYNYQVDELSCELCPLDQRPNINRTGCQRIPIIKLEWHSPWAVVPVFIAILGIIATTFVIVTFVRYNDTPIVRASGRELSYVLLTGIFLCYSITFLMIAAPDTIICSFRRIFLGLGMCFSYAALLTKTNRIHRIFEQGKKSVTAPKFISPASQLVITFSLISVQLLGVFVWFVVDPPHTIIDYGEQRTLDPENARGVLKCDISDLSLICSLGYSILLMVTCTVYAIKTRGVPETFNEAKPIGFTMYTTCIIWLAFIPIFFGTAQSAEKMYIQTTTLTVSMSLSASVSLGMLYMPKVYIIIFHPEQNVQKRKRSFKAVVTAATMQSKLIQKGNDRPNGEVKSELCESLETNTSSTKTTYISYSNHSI
Cytochrome P450 2D6, sequence (P10635 whole entry): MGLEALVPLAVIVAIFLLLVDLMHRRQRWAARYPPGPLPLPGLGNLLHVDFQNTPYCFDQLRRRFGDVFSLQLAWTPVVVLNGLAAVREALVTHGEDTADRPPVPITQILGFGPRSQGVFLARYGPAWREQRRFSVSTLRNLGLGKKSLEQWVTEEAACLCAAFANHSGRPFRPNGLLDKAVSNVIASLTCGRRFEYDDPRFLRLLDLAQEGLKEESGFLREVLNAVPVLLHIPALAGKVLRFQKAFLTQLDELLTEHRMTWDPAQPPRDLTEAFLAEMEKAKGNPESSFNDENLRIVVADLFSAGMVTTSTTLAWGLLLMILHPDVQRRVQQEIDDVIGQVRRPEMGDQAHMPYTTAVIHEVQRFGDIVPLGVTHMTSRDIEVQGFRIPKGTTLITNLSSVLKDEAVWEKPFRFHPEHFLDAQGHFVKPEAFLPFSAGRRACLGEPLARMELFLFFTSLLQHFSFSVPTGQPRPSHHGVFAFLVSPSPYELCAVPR

CC1(C)CCC(Nc2ncnc3c2nn2ccccc32)CC1
IC50 [1]: 0.069 µM | %max [2]: 2.9% | IC50 [3]: 0.129 µM | %max [4]: 1.6% | inhibition [5]: 92% | inhibition [6]: 94% | inhibition [7]: 65% | inhibition [8]: 65% | inhibition [9]: 55% | inhibition [10]: 65.3% | inhibition [11]: 85.1% | inhibition [12]: 75.9% | inhibition [13]: 50.4% | inhibition [14]: 52.9% | inhibition [15]: 79.4% | inhibition [16]: 75.2% | inhibition [17]: 58.8% | Fu [18]: 0.025 | Fu [19]: 0.037 | fraction unbound [20]: 0.008 | fraction unbound [21]: 0.01 | IC50 [22]: > 30 µM | IC50 [23]: > 30 µM | IC50 [24]: > 30 µM | IC50 [25]: 9.6 µM | half-life [26]: 34 min | clearance [27]: 98 mL/min/kg | Kp [28]: 5.3 | Kp [29]: 3.3 | K(p,uu,brain) [30]: 1.1 | K(p,uu,brain) [31]: 1.3 | Tmax [32]: 15 min | Cmax [33]: 2300 nM | AUC [34]: 3.23 µM·h | Tmax [35]: 20 min | Cmax [36]: 3000 nM | AUC [37]: 2.86 µM·h | Activity [38]: inactive | Activity [39]: inactive | Activity [40]: inactive | Activity [41]: inactive | Activity [42]: inactive | Activity [43]: inactive | inhibition [44]: 63%

— ChEMBL document CHEMBL3784934, “N-Alkylpyrido[1',2':1,5]pyrazolo-[4,3-d]pyrimidin-4-amines: A new series of negative allosteric modulators of mGlu1/5 with CNS exposure in rodents” (Bioorg Med Chem Lett, 2016)
